Experimental data published in patent publication US20220324835A1 (Nurix Therapeutics, Inc., priority 2018, published 2022).

Legend:
Cbl-b [1] = molecular target: T1, Cbl-b (Homo sapiens, UniProt Q13191); assay: Cbl-b activity assay (Cbl-b inhibition assay), TR-FRET of Cbl-b interaction with UbcH5B-Ub; format: biochemical
In short: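 UbcH5B (C85K) conjugated to N-terminally Bodipy-Fluorescein-labeled ubiquitin served as the fluorescent partner. After compound preincubation, Src kinase (60 nM) with 1 mM ATP and 5 mM MgCl2 (final) was added for 1.5 h, followed by a further 1 h incubation. Some values were obtained with 50 mM NaCl and 30 nM Src.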

Cbl-b (residues 36-427) = Cbl-b (residues 36-427) (Homo sapiens, UniProt Q13191); assay: Cbl-b binding assay (SPR, Biacore T200); details: 20° C., 1:1 binding model
In short: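 Steps: capture protein on NeutrAvidin surface; inject compound dilutions (8 or 10 points from 100 or 50 μM) 50 s; allow 90-180 s dissociation; regenerate 20 s with 0.3 M NaCl. Runs at 20° C in HEPES pH 7.5/100 mM NaCl/2% DMSO; 1:1 fitting.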

Cbl-b [2] = molecular target: T1, Cbl-b; assay: Cbl-b inhibition assay (Cbl-b activity assay, FRET, Biological Example 1; 100 mM NaCl, 60 nM Src kinase); format: biochemical; details: upper bound stated in text lists; read-out: IC50 values in the Cbl-b inhibition assay of Biological Example 1
In short: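 Inhibitor activity is measured as reduced terbium-to-fluorescein FRET between streptavidin-terbium on biotinylated Cbl-b and Bodipy-fluorescein ubiquitin carried by an irreversible UbcH5B-Ub conjugate, binding of which depends on Src phosphorylation of Cbl-b.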

[3] = assay buffer with 100 mM NaCl, 60 nM Src kinase, read-out: Cbl-b activity IC50

T1 sequence (Q13191 36-427): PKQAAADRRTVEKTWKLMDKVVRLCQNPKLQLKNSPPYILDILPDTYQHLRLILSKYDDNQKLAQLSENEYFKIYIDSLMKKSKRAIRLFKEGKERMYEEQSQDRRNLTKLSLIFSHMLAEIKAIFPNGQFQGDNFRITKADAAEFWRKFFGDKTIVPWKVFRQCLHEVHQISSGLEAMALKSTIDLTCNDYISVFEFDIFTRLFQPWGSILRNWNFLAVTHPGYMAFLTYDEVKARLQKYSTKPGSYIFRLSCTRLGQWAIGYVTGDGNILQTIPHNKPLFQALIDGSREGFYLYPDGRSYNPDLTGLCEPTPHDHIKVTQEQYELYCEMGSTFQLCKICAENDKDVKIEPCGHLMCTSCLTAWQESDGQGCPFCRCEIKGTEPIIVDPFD
Chain of Cbl-b (residues 36-427) (Q13191 36-427): as above

SMILES	IC50 (Cbl-b [1]; * assay buffer containing 50 mM NaCl instead of 100 mM NaCl and 30 nM Src kinase instead of 60 nM, read-out: Cbl-b activity IC50 (μM)*)	IC50 (Cbl-b [1]; [3])	Kd (Cbl-b (residues 36-427))	IC50 (Cbl-b [2])
CC(Sc1nncn1C)c1cccc(N2Cc3ccc(Cl)cc3C2=O)c1 (stereo not shown) [Compound 163, 6-chloro-2-[3-[1-[(4-methyl-1,2,4-triazol-3-yl)sulfanyl]ethyl]phenyl]isoindolin-1-one]	3 to 10 µM	3 to 10 µM	3 to 10 µM	≤ 10 µM
C[C@H](Sc1nncn1C)c1cccc(N2Cc3cc(Cl)ccc3C2=O)c1 [Compound 164, (S)-5-chloro-2-(3-(1-((4-methyl-4H-1,2,4-triazol-3-yl)thio)ethyl)phenyl)isoindolin-1-one]	–	0.301 to 1 µM	1 to 3 µM	≤ 1 µM
C[C@@H](Sc1nncn1C)c1cccc(N2Cc3c(cccc3C(F)(F)F)C2=O)c1 [Compound 166b, (R)-2-(3-(1-(4-methyl-4H-1,2,4-triazol-3-ylthio)ethyl)phenyl)-4-(trifluoromethyl)isoindolin-1-one]	–	1 to 3 µM	3 to 10 µM	≤ 10 µM
C[C@@H](Sc1nncn1C)c1cc(F)cc(N2Cc3c(cccc3C(F)(F)F)C2=O)c1 [Compound 168b, 2-[3-fluoro-5-[(1R)-1-[(4-methyl-1,2,4-triazol-3-yl)sulfanyl]ethyl]phenyl]-4-(trifluoromethyl)isoindolin-1-one]	–	1 to 3 µM	1 to 3 µM	≤ 10 µM
C[C@H](Sc1nncn1C)c1ccc(F)c(N2Cc3c(cccc3C(F)(F)F)C2=O)c1 [Compound 169, 2-[2-fluoro-5-[(1S)-1-[(4-methyl-1,2,4-triazol-3-yl)sulfanyl]ethyl]phenyl]-4-(trifluoromethyl)isoindolin-1-one]	–	1 to 3 µM	1 to 3 µM	≤ 10 µM
C[C@@H](Sc1nncn1C)c1ccnc(N2Cc3c(cccc3C(F)(F)F)C2=O)c1 [Compound 172b, (R)-2-(4-(1-((4-methyl-4H-1,2,4-triazol-3-yl)thio)ethyl)pyridin-2-yl)-4-(trifluoromethyl)isoindolin-1-one]	–	3 to 10 µM	> 10 µM	≤ 10 µM
CC(Sc1nncn1C)c1cc(N)nc(N2Cc3c(cccc3C(F)(F)F)C2=O)c1 (stereo not shown) [Compound 175, 2-[6-amino-4-[1-[(4-methyl-1,2,4-triazol-3-yl)sulfanyl]ethyl]-2-pyridyl]-4-(trifluoromethyl)isoindolin-1-one]	–	3 to 10 µM	3 to 10 µM	≤ 10 µM
CC(CO)Nc1cc(C(C)Sc2nncn2C)cc(N2Cc3c(cccc3C(F)(F)F)C2=O)n1 (stereo not shown) [Compound 176, 2-[6-[(2-hydroxy-1-methyl-ethyl)amino]-4-[1-[(4-methyl-1,2,4-triazol-3-yl)sulfanyl]ethyl]-2-pyridyl]-4-(trifluoromethyl)isoindolin-1-one]	–	0.301 to 1 µM	1 to 3 µM	≤ 1 µM
CC(Sc1nncn1C)c1cc(NC[C@H](C)O)nc(N2Cc3c(cccc3C(F)(F)F)C2=O)c1 (stereo partly drawn) [Compound 177, 2-[6-[[(2S)-2-hydroxypropyl]amino]-4-[1-[(4-methyl-1,2,4-triazol-3-yl)sulfanyl]ethyl]-2-pyridyl]-4-(trifluoromethyl)iso-indolin-1-one]	–	3 to 10 µM	3 to 10 µM	≤ 10 µM
CCNc1cc(C(C)Sc2nncn2C)cc(N2Cc3c(cccc3C(F)(F)F)C2=O)n1 (stereo not shown) [Compound 178, 2-[6-(ethylamino)-4-[1-[(4-methyl-1,2,4-triazol-3-yl)sulfanyl]ethyl]-2-pyridyl]-4-(trifluoromethyl)isoindolin-1-one]	–	0.301 to 1 µM	0.301 to 1 µM	≤ 1 µM
CC(Sc1nncn1C)c1cc(NC2CCOC2)nc(N2Cc3c(cccc3C(F)(F)F)C2=O)c1 (stereo not shown) [Compound 179, 2-(4-(1-((4-methyl-4H-1,2,4-triazol-3-yl)thio)ethyl)-6-((tetrahydrofuran-3-yl)amino)pyridin-2-yl)-4-(trifluoromethyl)isoindolin-1-one]	–	3 to 10 µM	3 to 10 µM	≤ 10 µM
CNc1cc(C(C)Sc2nncn2C)cc(N2Cc3c(cccc3C(F)(F)F)C2=O)n1 (stereo not shown) [Compound 180, 2-[6-(methylamino)-4-[1-[(4-methyl-1,2,4-triazol-3-yl)sulfanyl]ethyl]-2-pyridyl]-4-(trifluoromethyl)isoindolin-1-one]	–	1 to 3 µM	1 to 3 µM	≤ 10 µM
Cn1cnnc1SC(CCO)c1cccc(NC(=O)c2cccc(C(F)(F)F)n2)c1 (stereo not shown) [Compound 181, N-(3-(3-hydroxy-1-((4-methyl-4H-1,2,4-triazol-3-yl)thio)propyl)phenyl)-6-(trifluoromethyl)picolinamide]	–	1 to 3 µM	3 to 10 µM	≤ 10 µM
C[C@H](Cc1nncn1C)c1cccc(NC(=O)c2cc3ccccc3cn2)c1 [Compound 182, (R)-N-(3-(1-(4-methyl-4H-1,2,4-triazol-3-yl)propan-2-yl)phenyl)isoquinoline-3-carboxamide]	–	0.301 to 1 µM	0.301 to 1 µM	≤ 0.5 µM
C[C@@H](Cc1nncn1C)c1cccc(NC(=O)c2cccc(C(F)(F)F)n2)c1 [Compound 183b, (S)-N-(3-(1-(4-methyl-4H-1,2,4-triazol-3-yl)propan-2-yl)phenyl)-6-(trifluoromethyl)picolinamide]	–	0.1 to 0.3 µM	3 to 10 µM	≤ 10 µM
C[C@H](Cc1nncn1C)c1cccc(NC(=O)c2cc(C(F)(F)F)ccn2)c1 [Compound 184, (R)-N-(3-(1-(4-methyl-4H-1,2,4-triazol-3-yl)propan-2-yl)phenyl)-4-(trifluoromethyl)picolinamide]	–	1 to 3 µM	3 to 10 µM	≤ 10 µM
C[C@@H](Cc1nncn1C)c1cccc(NC(=O)c2cc(S(C)(=O)=O)cc(C3CC3)n2)c1 [Compound 198b]	–	3 to 10 µM	3 to 10 µM	≤ 10 µM
C[C@H](Cc1nncn1C)c1cccc(NC(=O)c2cc(N[C@@H]3CC[C@H](O)C3)ccn2)c1 [Compound 204, 4-((1R,3S)-3-hydroxycyclopentylamino)-N-(3-((R)-1-(4-methyl-4H-1,2,4-triazol-3-yl)propan-2-yl)phenyl)picolinamide]	–	1 to 3 µM	1 to 3 µM	≤ 10 µM
C[C@H](Cc1nncn1C)c1cccc(NC(=O)c2cc(O[C@@H]3CC[C@H](O)C3)ccn2)c1 [Compound 207, 4-((1R,3S)-3-hydroxycyclopentyloxy)-N-(3-((R)-1-(4-methyl-4H-1,2,4-triazol-3-yl)propan-2-yl)phenyl)picolinamide]	–	0.301 to 1 µM	1 to 3 µM	≤ 1 µM
C[C@H](Cc1nncn1C)c1cccc(NC(=O)c2cc(N[C@H]3CC[C@@H](O)C3)ccn2)c1 [Compound 208, cis-4-(3-hydroxycyclopentylamino)-N-(3-((R)-1-(4-methyl-4H-1,2,4-triazol-3-yl)propan-2-yl)phenyl)picolinamide]	–	0.301 to 1 µM	3 to 10 µM	≤ 1 µM
C[C@@H](Cc1nncn1C)c1cccc(NC(=O)c2cc3cc(N4CCN(C)C(=O)C4)ccc3cn2)c1 [Compound 210, (S)-6-(4-methyl-3-oxopiperazin-1-yl)-N-(3-(1-(4-methyl-4H-1,2,4-triazol-3-yl)propan-2-yl)phenyl)isoquinoline-3-carboxamide 2,2,2-trifluoroacetate]	–	3 to 10 µM	3 to 10 µM	≤ 10 µM
C[C@H](Cc1nncn1C)c1cccc(NC(=O)c2cc(C(=O)N3C[C@@H](O)C[C@@H]3C)ccn2)c1 [Compound 223, 4-((2S,4S)-4-hydroxy-2-methylpyrrolidine-1-carbonyl)-N-(3-((R)-1-(4-methyl-4H-1,2,4-triazol-3-yl)propan-2-yl)phenyl)picolinamide]	–	3 to 10 µM	3 to 10 µM	≤ 10 µM
C[C@H](Cc1nncn1C)c1cccc(NC(=O)c2cc(C(=O)N3CC(S(C)(=O)=O)C3)ccn2)c1 [Compound 225, 4-(3-methanesulfonylazetidine-1-carbonyl)-N-[3-[(2R)-1-(4-methyl-4H-1,2,4-triazol-3-yl)propan-2-yl]phenyl]pyridine-2-carboxamide]	–	1 to 3 µM	3 to 10 µM	≤ 10 µM
C[C@H](Cc1nncn1C)c1cccc(NC(=O)c2cc(C(=O)NCC(C)(C)O)ccn2)c1 [Compound 226, (R)-N^4-(2-hydroxy-2-methylpropyl)-N^2-(3-(1-(4-methyl-4H-1,2,4-triazol-3-yl)propan-2-yl)phenyl)pyridine-2,4-dicarboxamide]	–	3 to 10 µM	3 to 10 µM	≤ 10 µM
C[C@H](Cc1nncn1C)c1cccc(NC(=O)c2cc(C(=O)N3CCC(C)(O)CC3)ccn2)c1 [Compound 227, (R)-4-(4-hydroxy-4-methylpiperidine-1-carbonyl)-N-(3-(1-(4-methyl-4H-1,2,4-triazol-3-yl)propan-2-yl)phenyl)picolinamide]	–	1 to 3 µM	3 to 10 µM	≤ 10 µM
C[C@H](Cc1nncn1C)c1cccc(NC(=O)c2cc(C(=O)N3CC[C@](C)(N)C3)ccn2)c1 [Compound 229, 4-((S)-3-amino-3-methylpyrrolidine-1-carbonyl)-N-(3-((R)-1-(4-methyl-4H-1,2,4-triazol-3-yl)propan-2-yl)phenyl)picolinamide]	–	1 to 3 µM	1 to 3 µM	≤ 10 µM
